Results published in ChEMBL document CHEMBL4699481, “Structure-based amelioration of PXR transactivation in a novel series of macrocyclic allosteric inhibitors of HIV-1 integrase” (Bioorg Med Chem Lett, 2020).

What was measured:
[1] = target: T1, Nuclear receptor subfamily 1 group I member 2 (Homo sapiens, UniProt O75469); test: Transactivation of human PXR transfected in human HepG2 cells co-transfected with CYP3A4-Luc plasmid incubated for overnight by luciferase reporter gene assay; type: ADME, cell-based
T1 sequence (O75469 whole entry): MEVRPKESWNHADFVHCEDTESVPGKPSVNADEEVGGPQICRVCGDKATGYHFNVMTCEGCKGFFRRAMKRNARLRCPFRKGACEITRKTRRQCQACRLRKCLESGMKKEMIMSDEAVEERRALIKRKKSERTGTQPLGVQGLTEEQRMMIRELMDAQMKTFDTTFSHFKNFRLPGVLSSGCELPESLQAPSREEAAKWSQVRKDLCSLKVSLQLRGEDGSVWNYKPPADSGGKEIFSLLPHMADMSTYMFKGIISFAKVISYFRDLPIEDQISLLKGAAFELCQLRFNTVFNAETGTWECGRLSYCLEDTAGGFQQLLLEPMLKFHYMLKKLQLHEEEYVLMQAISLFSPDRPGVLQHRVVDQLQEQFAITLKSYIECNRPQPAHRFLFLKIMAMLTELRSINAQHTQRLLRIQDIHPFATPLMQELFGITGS

[2] = Allosteric inhibition of HIV-1 integrase assessed as antiviral activity against HIV-1 NL4-3 infected in human MT-2 cells by measuring inhibition of viral growth by luciferase reporter gene assay; type: cell-based; conditions: Human immunodeficiency virus 1, NL4-3, MT2
PXR (NR1I2) = target: T2, PXR (NR1I2) (Homo sapiens, UniProt O75469); test: Transactivation of human PXR transfected in human HepG2 cells co-transfected with CYP3A4-Luc plasmid incubated for overnight by luciferase reporter gene assay relative to 10 uM rifampicin; type: ADME, cell-based
T2 sequence (O75469 whole entry): T1 sequence (O75469 whole entry)

| SMILES | EC50 [1] [nM] | Emax (PXR (NR1I2)) [%] | EC50 [2] [nM] |
| --- | --- | --- | --- |
| Cc1c([C@H](OC(C)(C)C)C(=O)O)c2n3cc(nc3c1CN(C)C)-c1cccc(c1)-c1cc(F)ccc1O[C@@H](C)CCCCOC1(C)CCN2CC1 | > 50000 | – | 4.4 |
| Cc1nc2cc(-c3cccc(-c4ccccc4)c3)nn2c(N2CCC(C)(C)CC2)c1[C@H](OC(C)(C)C)C(=O)O | – | – | 130 |
| Cc1cc2nc(-c3cccc(-c4cccc(F)c4)c3)cn2c(N2CCC(C)(C)CC2)c1[C@H](OC(C)(C)C)C(=O)O | – | – | 20.9 |

Now from value to molecule, other results behind:

| EC50 [1] [nM] | Emax (PXR (NR1I2)) [%] | SMILES | EC50 [2] [nM] |
| --- | --- | --- | --- |
| > 50000 | – | Cc1c([C@H](OC(C)(C)C)C(=O)O)c2n3cc(nc3c1CNCC(C)(C)O)-c1cccc(c1)-c1cc(F)ccc1O[C@@H](C)CCCCOC1(C)CCN2CC1 | 9.5 |
| 1010 | 71 | Cc1c([C@H](OC(C)(C)C)C(=O)O)c2n3cc(nc3c1C(C)(C)O)-c1cccc(c1)-c1cc(F)ccc1O[C@@H](C)CCCCOC1(C)CCN2CC1 | 5.7 |
| > 50000 | – | Cc1c([C@H](OC(C)(C)C)C(=O)O)c2n3cc(nc3c1CNC(C)C)-c1cccc(c1)-c1cc(F)ccc1O[C@@H](C)CCCCOC1(C)CCN2CC1 | 7.3 |
